Test results from PMC9143821, “Design and Synthesis of a Novel 4-aryl-N-(2-alkoxythieno [2,3-b]pyrazine-3-yl)-4-arylpiperazine-1-carboxamide DGG200064 Showed Therapeutic Effect on Colon Cancer through G2/M Arrest” (Pharmaceuticals, 2022).
Where a SMILES comes first, the peptide text is derived from it. The star is where a group is joined. Cbz = O=C(OCc1ccccc1)*

Tests used:
[1] = system: HCT15; test: SRB assay, colon cancer cell growth inhibition; type: cell-based; conditions: Homo sapiens, HCT-15, 48 h
Description: (§1) A series of 4-phenyl-N-(thieno[2,3-b]pyrazin-3-yl)piperazine-1-carboxamides derivatives 7a–7i were tested for the colon cancer cell growth inhibition effect using the SRB assay (Table 2). […] Compounds 7a and 7b, containing chlorine at the C6 position of thieno[2,3-b]pyrazine ring, have weaker anticancer activity than its proton-containing derivatives 7c–7i. On the other hand, 7c has shown higher inhibition activity than 7d with methyl substituents at the C3 and C5 positions of the phenyl ring. […] Substitutions with one fluorine atom in the phenyl ring could not improve the inhibition effect of the compounds 7g–7h.
(§2) The HCT116, HCT8, KM12, HCT15, HT29, COLO-205, SW620 cell line was obtained from the National Cancer Institute (Material Transfer Agreement number: 2702–09). DLD1 cell line was obtained from the Korean cell line bank. Cells were cultured in complete Roswell Park Memorial Institute (RPMI) 1640 medium (Hyclone, South Logan, UT, USA) containing 10% fetal bovine serum (Hyclone, South Logan, UT, USA) in an atmosphere of 5% CO2 and 100% humidity at 37 °C. A small interfering RNA (siRNA) duplex targeting human c-Jun and FBXW7 (Genolution, Seoul, Korea) were introduced into cells using Lipofector-EXT (AptaBio, Yongin, Korea), according to the manufacturer’s instructions. As negative controls, cells were incubated with Lipofector-EXT (AptaBio, Yongin, KOR) and a negative siRNA (Genolution, Seoul, Korea).
(§3) Cells (100 μL containing 5000–10,000 cells/well) were incubated in 96 well microtiter plates. After 24 h, drugs were added (100 μL) to each well and the cultures were incubated for 48 h at 37 °C. The cells were then fixed in TCA (50 μL per well). The plates were incubated for a minimum of 1 h or a maximum of 3 h at 4 °C. The liquid was removed from the plate, which was then rinsed five times with water and allowed to dry at room temperature (rt) for approximately 12–24 h. The fixed cells were stained with 100 μL Sulforhodamine B (SRB) solution for 5 min at rt. After staining, the plate was washed three times with 1% glacial acetic acid and dried at rt for approximately 12–24 h. The SRB was then solubilized in 10 mM Tris buffer, and the absorbance was read at 515 nm. The effect of the drugs was expressed as GI50 (50% growth inhibition).

[2] = system: HT29; test: SRB assay, colon cancer cell growth inhibition; type: cell-based; conditions: Homo sapiens, HT-29, 48 h
Description: as §1, §2, §3

[3] = system: SW620; test: SRB assay, colon cancer cell growth inhibition; type: cell-based; conditions: Homo sapiens, SW-620, 48 h
Description: as §1, §2, §3

[4] = system: HCT116; test: SRB assay, colon cancer cell growth inhibition; type: cell-based; conditions: Homo sapiens, HCT-116
Description: as §1, §2, §3

[5] = system: KM12; test: SRB assay, colon cancer cell growth inhibition; type: cell-based; conditions: Homo sapiens, 48 h
Description: as §1, §2, §3

[6] = system: Colo205; test: SRB assay, colon cancer cell growth inhibition; type: cell-based; conditions: Homo sapiens, COLO 205, 48 h
Description: as §1, §2, §3

[7] = system: HCT8; test: SRB assay, colon cancer cell growth inhibition; type: cell-based; conditions: Homo sapiens, HCT-8, 48 h
Description: as §1, §2, §3

[8] = Pharmacokinetics in SD rats; type: in vivo; conditions: male, Sprague-Dawley, rat, plasma
Description: Sprague–Dawley rats (adult males, 250–300 g) were fasted overnight, and the femoral vein (for iv administration of the compound) and jugular vein (for blood sampling) of each rat were cannulated with polyethylene tubing. The selected compounds dissolved in 30% polyethylene glycol (PEG) in saline were administered either intravenously or orally. At various time points after administration, blood samples (0.5 mL) were collected from the jugular vein, transferred to heparin-coated tubes, centrifuged to separate off the plasma. The plasma was stored at −80 °C until assayed. Compound concentrations in plasma were determined by LC/MS/MS analysis (API4000 mass spectrometer, Applied Biosystem, Waltham, MA, USA). Pharmacokinetic parameters were analyzed using the WinNonlin software program. The area under the curve (AUC) was calculated using the trapezoidal rule extrapolated to infinity. The terminal elimination half-life, systemic clearance, and volume of distribution at steady state were determined. The extent of absolute oral bioavailability (F) was estimated by comparing the AUC values after intravenous and oral administration of the compounds.

[9] = system: FBXW7/c-Jun interaction; test: Immunoprecipitation, ubiquitination and FBXW7/c-Jun interaction; type: cell-based, human; conditions: HCT116 and DLD1; DGG200064 50 nM 18 h; MG132 10 μM 6 h
Text: To investigate whether the ubiquitination of c-Jun is suppressed through the inhibition of c-Jun and FBXW7 binding by DGG200064, c-Jun immunoprecipitation was done to observe protein–protein interaction (Figure 4). E3 ligase, such as FBXW7, binds the protein to the ubiquitin chain through covalent bonds and rapidly degrades the protein through 26S proteasome. When treated with MG132 as a proteasome inhibitor, the ubiquitination of c-Jun increased compared to both control HCT116 and DLD1 cells. In contrast, the c-Jun ubiquitination was inhibited by DGG200064. The binding between c-Jun and FBXW7 was reduced with DGG200064 treatment. The FBXW7 protein, also known as CDC4, is a component of the SCF complex ubiquitin ligase and is known as a modulator of several substrates including cyclin E, c-Myc, c-Jun, and Notch. To check the selectivity of DGG200064 towards FBXW7 substrates, the change of c-Jun, cyclin E, and c-Myc by DGG200064 was analyzed. […] Cyclin E immunoprecipitation was done to test whether the ubiquitination of cyclin E by FBXW7 is inhibited by DGG200064 in HCT116 (Figure S2b, Supplementary Materials). There were no changes in cyclin E ubiquitination with DGG200064 treatment.
To identified ubiquitination of c-Jun by DGG200064, HCT116 cells were treated with/without MG132 (10 μM) for 6h, DGG200064 (50 nM) for 18 h. The cell lysate was prepared using RIPA buffer for immunoprecipitation. Each lysate was mixed with antibodies (1 μg/mL) of c-Jun or MYC at 4 °C overnight in immunoprecipitation buffer containing 50 mM Tris-Cl,150 mM NaCl, 1 mM EDTA, 0.5% Triton X-100, pH 7.4, and reacted with 10 μL of protein A/G beads UltraLink Resin (50:50 resin: buffer slurry condition) (Peirce, #35133) for 2 h on RT for precipitation. After reaction and centrifugation at 3000 rpm for 3 min, the immunoprecipitated samples were washed with 500 μL of immunoprecipitation buffer by tapping and centrifuged. The washing was repeated five times before western blotting.

[10] = quoted in docking discussion, cell line not stated there (values match HCT116)

| SMILES | GI50 [1] | GI50 [2] | GI50 [3] | GI50 ([4]; HCT116, SRB, 48 h) | GI50 [4, 10] | GI50 [5] | GI50 [6] | GI50 [7] | Cmax ([8]; no unit, species or route stated in b12 (7c value equals SD rats PO of Table 3)) | bioavailability ([8]; species and route not stated in b12 (7c value equals SD rats PO of Table 3), read-out: bioavailability (F)) | c-Jun ubiquitination [9] |
| --- | --- | --- | --- | --- | --- | --- | --- | --- | --- | --- | --- |
| COc1cc(OC)cc(N2CCN(C(=O)Nc3nc4sc(Cl)cc4nc3OC)CC2)c1 [Compound 7a, N-(6-chloro-2-methoxythieno[2,3-b]pyrazin-3-yl)-4-(3,5dimethoxyphenyl)piperazine-1-carboxamide] | 484 nM | 408 nM | 427 nM | 344 nM | ≥ 100 nM | 273 nM | 173 nM | 761 nM | – | – | – |
| COc1nc2cc(Cl)sc2nc1NC(=O)N1CCN(c2cc(C)cc(C)c2)CC1 [Compound 7b, N-(6-chloro-2-methoxythieno[2,3-b]pyrazin-3-yl)-4-(3,5-dimethylphenyl)piperazine-1-carboxamide] | 437 nM | 342 nM | 273 nM | 244 nM | – | 244 nM | 900 nM | 900 nM | – | – | – |
| COc1nc2ccsc2nc1NC(=O)N1CCN(c2cc(C)cc(C)c2)CC1 [Compound 7d, 4-(3,5-Dimethylphenyl)-N-(2-methoxythieno[2,3-b]pyrazin-3-yl)piperazine-1 carboxamide] | 38 nM | 26 nM | 38 nM | 33 nM | – | 32 nM | 40 nM | 59 nM | – | – | – |
| COc1nc2ccsc2nc1NC(=O)N1CCN(c2cc(F)cc(F)c2)CC1 [Compound 7e, 4-(3,5-Difluorophenyl)-N-(2-methoxythieno[2,3-b]pyrazin-3-yl)piperazine-1-carboxamide] | 507 nM | 672 nM | 288 nM | 307 nM | ≥ 100 nM | 426 nM | 287 nM | 269 nM | – | – | – |
| COc1cc(C)cc(N2CCN(C(=O)Nc3nc4sccc4nc3OC)CC2)c1 [Compound 7f, 4-(3-methoxy-5-methylphenyl)-N-(2-methoxythieno[2,3-b]pyrazin-3-yl)piperazine-1-carboxamide] | 36 nM | 21 nM | 34 nM | 1.9 nM | – | 21 nM | 28 nM | 37 nM | 195 ng/mL | 21.8% | – |
| COc1cc(F)cc(N2CCN(C(=O)Nc3nc4sccc4nc3OC)CC2)c1 [Compound 7g, 4-(3-Fluoro-5-methoxyphenyl)-N-(2-methoxythieno[2,3-b]pyrazin-3-yl)piperazine-1-carboxamide] | 30 nM | 57 nM | 29 nM | 45 nM | – | 22 nM | 14 nM | 39 nM | – | – | – |
| COc1nc2ccsc2nc1NC(=O)N1CCN(c2cc(C)cc(F)c2)CC1 [Compound 7h, 4-(3-Fluoro-5-methylphenyl)-N-(2-methoxythieno[2,3-b]pyrazin-3-yl)piperazine-1-carboxamide] | 42 nM | 29 nM | 40 nM | 32 nM | – | 38 nM | 28 nM | 51 nM | – | – | – |
| CCOc1nc2ccsc2nc1NC(=O)N1CCN(c2cc(OC)cc(OC)c2)CC1 [Compound 7i, 4-(3,5-dimethoxyphenyl)-N-(2-ethoxythieno[2,3-b]pyrazin-3-yl)piperazine-1-carboxamide] | 68 nM | 35 nM | 53 nM | 71 nM | – | 74 nM | 35 nM | 58 nM | – | – | – |
| CC(C)C[C@@H](C=O)NC(=O)[C@H](CC(C)C)NC(=O)[C@H](CC(C)C)NC(=O)OCc1ccccc1 [MG132, reference compound] (Cbz-Leu-Leu-Leu-aldehyde) | – | – | – | – | – | – | – | – | – | – | increased |
